The text below walks through data of patent US8022064B2, “Phenylpentadienoyl derivatives and their use as PAR 1 antagonists” (Pierre Fabre Medicament, priority 2006, dated 2011).

The experiment addresses T1, PAR-1 receptor (Cricetulus griseus, UniProt A0A8C2QJ57).
T1 construct: Chinese hamster ovarian (CHO) cells constituently express PAR-1 receptor; endogenous in cells; host or cells: CHO cells
T1 sequence (A0A8C2QJ57 22-428): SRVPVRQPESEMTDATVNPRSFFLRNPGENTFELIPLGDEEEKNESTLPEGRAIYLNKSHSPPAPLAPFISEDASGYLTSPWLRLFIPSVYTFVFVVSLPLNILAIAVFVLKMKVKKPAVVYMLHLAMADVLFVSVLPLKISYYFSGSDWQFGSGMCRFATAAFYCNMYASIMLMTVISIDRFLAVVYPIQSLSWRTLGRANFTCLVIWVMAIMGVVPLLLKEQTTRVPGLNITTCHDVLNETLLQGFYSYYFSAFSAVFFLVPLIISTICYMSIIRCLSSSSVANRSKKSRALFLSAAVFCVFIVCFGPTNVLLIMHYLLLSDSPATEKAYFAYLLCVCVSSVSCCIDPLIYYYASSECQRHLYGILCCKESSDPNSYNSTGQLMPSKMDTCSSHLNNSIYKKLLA
Put plainly: Calcium release (FLIPR) antagonism of SFLLR-activated PAR-1 in CHO cells. The format is cell-based, Chinese hamster. As to conditions: SFLLR agonist, Schild method from EC50 shifts at three concentrations, read-out: pA2 (converted). On the procedure: In a variety of cell types, activation of PAR-1 receptors by the SFLLR peptide (a selective PAR-1 agonist) triggers an intracellular signal cascade leading to the release of calcium by the endoplasmic reticulum. Chinese hamster ovarian (CHO) cells constituently express PAR-1 receptor. In this cell line, the release of calcium consecutive to receptor activation by SFLLR is measured by a fluorometry technique (fluorometric imaging plate reader, or FLIPR) using a selective probe for calcium (Fluo-3AM). The emission of fluorescence is pharmacologically proportional to the efficiency of the PAR-1 agonist and to its concentration.
Culture medium: Ham's F-12 (Ham, R. G., Proc. Nat. Acad. Sci. 1965, 53: 288) supplemented with 10% fetal calf serum and […].
Fluorescent probe: Fluo-3AM (4 μM; Teflabs, Austin, Tex., USA)
Agonist: SFLLR-NH2 (Serine, phenylalanine, leucine, leucine, arginine).
Methods: CHO cells are inoculated in 96-well plates (60,000 cells per well) in the presence of 200 μl of culture medium for 24 hours. The cells are incubated with the calcium fluorescent probe for 1 hour at 37° C. The cells are then washed 10 minutes before the signal is measured. PAR-1 antagonist is then injected (0.01 μM to 10 μM). The plates are placed in the FLIPR (Molecular Devices, UK) to measure calcium fluorescence at two wavelengths (488 nm and 540 nm: Sullivan et al., Calcium Signaling Protocols 1999, 125-136). Measurements are taken for 5 min before the antagonist is added and for 10 min following its administration. Maximum fluorescence minus baseline fluorescence is measured in 4 different wells. The test is carried out in duplicate. Under these conditions, the derivatives of the present invention were identified as PAR-1 receptor antagonists (antagonism >60% of the calcium signal at 10 μM). The dose-response curves (0.01 μM to 32 μM) obtained with the SFLLR agonist allowed determination of the effective concentration inducing 50% of the maximum effect (EC50). The strengths (pA2) of some of the PAR-1 antagonists described in the present invention were calculated using the method of Arunlakshana and Schild (Brit. J. Pharmacol., 1959, 14: 48-58) from the EC50 shifts observed at three concentrations.
For `O=C(C=CC=Cc1ccccc1[N+](=O)[O-])N1CCN(c2ccccn2)CC1` [Example 21, 5-(2-Nitro-phenyl)-1-(4-pyridin-2-yl-piperazin-1-yl)-penta-2,4-dien-1-one], the Kb is 0.0776 µM.
As for `N#Cc1ccccc1/C=C/C=C/C(=O)N1CCN(C2CCCC2)CC1` [Example 2, 2-[5-(4-Cyclopentyl-piperazin-1-yl)-5-oxo-penta-1,3-dienyl]-benzonitrile], the Kb is 0.234 µM.
The value for `O=C(/C=C/C=C/c1ccccc1Cl)N1CCN(C2CCCC2)CC1` [Example 9, 5-(2-Chloro-phenyl)-1-(4-cyclopentyl-piperazin-1-yl)-penta-2,4-dien-1-one] was 0.229 µM; that for `N#Cc1ccccc1/C=C/C=C/C(=O)N1CCN(c2ccccn2)CC1` [Example 1, 2-[5-Oxo-5-(4-pyridin-2-yl-piperazin-1-yl)-penta-1,3-dienyl]-benzonitrile] was 0.316 µM; that for `O=C(/C=C/C=C/c1ccccc1[N+](=O)[O-])N1CCN(c2ccccc2)CC1` [Example 16, 5-(2-Nitro-phenyl)-1-(4-phenyl-piperazin-1-yl)-penta-2,4-dien-1-one] was 0.0589 µM.
In the case of `O=C(/C=C/C=C/c1ccccc1[N+](=O)[O-])N1CCN(C2CCCC2)CC1` [Example 18, 1-(4-Cyclopentyl-piperazin-1-yl)-5-(2-nitro-phenyl)-penta-2,4-dien-1-one], the Kb was 0.0692 µM.
